The record followed here is patent US20230365592A1 (Agios Pharmaceuticals, Inc., priority 2022, published 2023).

The structures appear in SMILES notation.

For this assay, the target named is T1, human PAH with the R408W mutation (Homo sapiens, UniProt P00439, R408W).
T1 construct: expressed in transfected cells
T1 sequence (P00439 1-452 R408W): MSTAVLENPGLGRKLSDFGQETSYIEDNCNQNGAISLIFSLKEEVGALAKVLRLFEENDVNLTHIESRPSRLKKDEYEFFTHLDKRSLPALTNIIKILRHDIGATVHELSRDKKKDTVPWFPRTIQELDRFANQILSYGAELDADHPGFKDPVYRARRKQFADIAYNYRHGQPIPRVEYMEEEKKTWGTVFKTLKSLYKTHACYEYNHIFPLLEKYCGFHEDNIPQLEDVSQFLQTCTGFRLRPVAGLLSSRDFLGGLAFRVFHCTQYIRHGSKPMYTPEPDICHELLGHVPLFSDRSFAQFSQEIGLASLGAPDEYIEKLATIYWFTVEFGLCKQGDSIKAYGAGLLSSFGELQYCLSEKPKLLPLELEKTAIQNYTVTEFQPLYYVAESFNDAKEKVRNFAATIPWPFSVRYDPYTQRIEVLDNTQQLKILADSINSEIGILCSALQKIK
The assay is described as follows: Cell Based Phenylalanine Flux Assay.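 Further: after compound treatment, cells received sepiapterin plus isotope-labelled Phenylalanine for 4 hours, then labelled Tyrosine in the medium was quantified, 10-point 2-fold dilution series run in duplicate.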 As to conditions: A375 cells expressing human PAH R408W; 24 hrs compound incubation; 13C-Tyrosine by LC-MS; average where tested multiple times; read-out: AC50.
The term AC50 denotes the concentration giving half of the maximal activity seen. For `O=C(c1nnc(-c2ncccn2)o1)N1CCc2[nH]cnc2[C@H]1c1cc2c(OC(F)(F)F)cccn2n1` [Example 2469, (S)-(5-(pyrimidin-2-yl)-1,3,4-oxadiazol-2-yl)(4-(4-(trifluoromethoxy)pyrazolo[1,5-a]pyridin-2-yl)-6,7-dihydro-1H-imidazo[4,5-c]pyridin-5(4H)-yl)methanone], the AC50 lay in the range of 1 to 5 µM.

With `COc1cccn2nc([C@@H]3c4nc[nH]c4CCN3C(=O)c3cnn4cc(C)ccc34)cc12` [Example 2470, (S)-(4-(4-methoxypyrazolo[1,5-a]pyridin-2-yl)-6,7-dihydro-1H-imidazo[4,5-c]pyridin-5(4H)-yl)(6-methylpyrazolo[1,5-a]pyridin-3-yl)methanone], the AC50 was in the range of 1 to 5 µM.

Turning to `COc1cccn2nc([C@H]3c4nc[nH]c4CCN3C(=O)c3cnn4cc(C)ccc34)cc12` [Example 2471, (R)-(4-(4-methoxypyrazolo[1,5-a]pyridin-2-yl)-6,7-dihydro-1H-imidazo[4,5-c]pyridin-5(4H)-yl)(6-methylpyrazolo[1,5-a]pyridin-3-yl)methanone], the AC50 is above 5 µM.

Take `CN(C)c1ccc2c(C(=O)N3CCc4[nH]cnc4[C@H]3c3cc4cccc(C(F)(F)F)n4n3)cnn2c1` [Example 2472, (S)-(6-(dimethylamino)pyrazolo[1,5-a]pyridin-3-yl)(4-(7-(trifluoromethyl)pyrazolo[1,5-a]pyridin-2-yl)-6,7-dihydro-1H-imidazo[4,5-c]pyridin-5(4H)-yl)methanone]: the AC50 was in the range of 1 to 5 µM.

`CN(C)c1ccc2c(C(=O)N3CCc4[nH]cnc4[C@H]3c3cc4cccc(Cl)n4n3)cnn2c1` [Example 2474, (S)-(4-(7-chloropyrazolo[1,5-a]pyridin-2-yl)-6,7-dihydro-1H-imidazo[4,5-c]pyridin-5(4H)-yl)(6-(dimethylamino)pyrazolo[1,5-a]pyridin-3-yl)methanone]: the AC50 was 1 to 5 µM.

With `CN(C)CCc1ccc2c(C(=O)N3CCc4[nH]cnc4[C@H]3c3cc4c(C(F)(F)F)cccn4n3)cnn2c1` [Example 2476, (S)-(6-(2-(dimethylamino)ethyl)pyrazolo[1,5-a]pyridin-3-yl)(4-(4-(trifluoromethyl)pyrazolo[1,5-a]pyridin-2-yl)-6,7-dihydro-1H-imidazo[4,5-c]pyridin-5(4H)-yl)methanone], the AC50 fell in the range of 1 to 5 µM.

On to `COCCc1ccc2c(C(=O)N3CCc4[nH]cnc4[C@H]3c3cc4c(C)cccn4n3)cnn2c1` [Example 2478, (S)-(6-(2-methoxyethyl)pyrazolo[1,5-a]pyridin-3-yl)(4-(4-methylpyrazolo[1,5-a]pyridin-2-yl)-6,7-dihydro-1H-imidazo[4,5-c]pyridin-5(4H)-yl)methanone], for which the AC50 was 1 to 5 µM.

In the case of `Cc1cccn2nc([C@H]3c4nc[nH]c4CCN3c3nnc(C4CCC4)o3)cc12` [Example 2480, (R)-2-cyclobutyl-5-(4-(4-methylpyrazolo[1,5-a]pyridin-2-yl)-6,7-dihydro-1H-imidazo[4,5-c]pyridin-5(4H)-yl)-1,3,4-oxadiazole], the AC50 was above 5 µM.

Consider `Cc1cccn2nc([C@@H]3c4nc[nH]c4CCN3c3nnc(C4CCC4)o3)cc12` [Example 2481, (S)-2-cyclobutyl-5-(4-(4-methylpyrazolo[1,5-a]pyridin-2-yl)-6,7-dihydro-1H-imidazo[4,5-c]pyridin-5(4H)-yl)-1,3,4-oxadiazole], for which the AC50 was in the range of 1 to 5 µM.

As to `FC(F)(F)c1cccn2nc([C@@H]3c4nc[nH]c4CCN3c3nnc(C4CCC4)o3)cc12` [Example 2482, (S)-2-cyclobutyl-5-(4-(4-(trifluoromethyl)pyrazolo[1,5-a]pyridin-2-yl)-6,7-dihydro-1H-imidazo[4,5-c]pyridin-5(4H)-yl)-1,3,4-oxadiazole], the AC50 was 1 to 5 µM.

For `FC(F)c1cccn2nc([C@@H]3c4nc[nH]c4CCN3c3nnc(C4CCC4)o3)cc12` [Example 2485, (S)-2-cyclobutyl-5-(4-(4-(difluoromethyl)pyrazolo[1,5-a]pyridin-2-yl)-6,7-dihydro-1H-imidazo[4,5-c]pyridin-5(4H)-yl)-1,3,4-oxadiazole], the AC50 lay within 1 to 5 µM.

`FC(F)c1cccc2cc([C@@H]3c4nc[nH]c4CCN3c3nnc(C(F)(F)F)o3)nn12` [Example 2487, (S)-2-(4-(7-(difluoromethyl)pyrazolo[1,5-a]pyridin-2-yl)-6,7-dihydro-1H-imidazo[4,5-c]pyridin-5(4H)-yl)-5-(trifluoromethyl)-1,3,4-oxadiazole]: the AC50 fell in the range of 1 to 5 µM.

`Cn1cc(-c2nnc(C(=O)N3CCc4[nH]cnc4[C@H]3c3cc4ccc(Br)cn4n3)o2)cn1` [Example 2488, (S)-(4-(6-bromopyrazolo[1,5-a]pyridin-2-yl)-1,4,6,7-tetrahydro-5H-imidazo[4,5-c]pyridin-5-yl)(5-(1-methyl-1H-pyrazol-4-yl)-1,3,4-oxadiazol-2-yl)methanone]: the AC50 was in the range of 1 to 5 µM.

Consider `FC(F)(F)c1nnc(N2CCc3[nH]cnc3[C@H]2c2cc3cccc(C(F)(F)F)n3n2)o1` [Example 2491, (S)-2-(trifluoromethyl)-5-(4-(7-(trifluoromethyl)pyrazolo[1,5-a]pyridin-2-yl)-1,4,6,7-tetrahydro-5H-imidazo[4,5-c]pyridin-5-yl)-1,3,4-oxadiazole], for which the AC50 lay within 1 to 5 µM.

Take `FC(F)(F)c1nnc(N2CCc3[nH]cnc3[C@H]2c2cc3cccc(Cl)n3n2)o1` [Example 2493, (S)-2-(4-(7-chloropyrazolo[1,5-a]pyridin-2-yl)-1,4,6,7-tetrahydro-5H-imidazo[4,5-c]pyridin-5-yl)-5-(trifluoromethyl)-1,3,4-oxadiazole]: the AC50 was in the range of 1 to 5 µM.

In the case of `O=C(c1cnc(C2CC2)o1)N1CCc2[nH]cnc2[C@H]1c1cc2ccccn2n1` [Example 2496, (S)-(2-cyclopropyloxazol-5-yl)(4-(pyrazolo[1,5-a]pyridin-2-yl)-1,4,6,7-tetrahydro-5H-imidazo[4,5-c]pyridin-5-yl)methanone], the AC50 lay within 1 to 5 µM.

As to `Cc1cccn2nc([C@@H]3c4nc[nH]c4CCN3C(=O)c3cnc(-c4ccn(C)n4)o3)cc12` [Example 2499, (S)-(2-(1-methyl-1H-pyrazol-3-yl)oxazol-5-yl)(4-(4-methylpyrazolo[1,5-a]pyridin-2-yl)-1,4,6,7-tetrahydro-5H-imidazo[4,5-c]pyridin-5-yl)methanone], the AC50 lay within 1 to 5 µM.

Turning to `Cc1nnc(C(=O)N2CCc3[nH]cnc3[C@H]2c2cc3c(C)cccn3n2)s1` [Example 2501, (S)-(5-methyl-1,3,4-thiadiazol-2-yl)(4-(4-methylpyrazolo[1,5-a]pyridin-2-yl)-1,4,6,7-tetrahydro-5H-imidazo[4,5-c]pyridin-5-yl)methanone], the AC50 was in the range of 1 to 5 µM.

As to `Cc1cccn2nc([C@@H]3c4nc[nH]c4CCN3C(=O)c3nc4ccccc4s3)cc12` [Example 2502, (S)-benzo[d]thiazol-2-yl(4-(4-methylpyrazolo[1,5-a]pyridin-2-yl)-1,4,6,7-tetrahydro-5H-imidazo[4,5-c]pyridin-5-yl)methanone], the AC50 lay within 1 to 5 µM.

For the compound `Cc1cccn2nc([C@H]3c4nc[nH]c4CCN3C(=O)c3nc4ccccc4s3)cc12` [Example 2503, (R)-benzo[d]thiazol-2-yl(4-(4-methylpyrazolo[1,5-a]pyridin-2-yl)-1,4,6,7-tetrahydro-5H-imidazo[4,5-c]pyridin-5-yl)methanone], the AC50 was above 5 µM.

On to `Cn1ccc(-c2ncc(C(=O)N3CCc4[nH]cnc4[C@@H]3c3cc4c(F)cccn4n3)o2)n1` [Example 2504, (R)-(4-(4-fluoropyrazolo[1,5-a]pyridin-2-yl)-1,4,6,7-tetrahydro-5H-imidazo[4,5-c]pyridin-5-yl)(2-(1-methyl-1H-pyrazol-3-yl)oxazol-5-yl)methanone], for which the AC50 was above 5 µM.

For `Cn1ccc(-c2ncc(C(=O)N3CCc4[nH]cnc4[C@H]3c3cc4c(F)cccn4n3)o2)n1` [Example 2505, (S)-(4-(4-fluoropyrazolo[1,5-a]pyridin-2-yl)-1,4,6,7-tetrahydro-5H-imidazo[4,5-c]pyridin-5-yl)(2-(1-methyl-1H-pyrazol-3-yl)oxazol-5-yl)methanone], the AC50 is 1 to 5 µM.

`Cn1cc(-c2ncc(C(=O)N3CCc4[nH]cnc4[C@H]3c3cc4c(C(F)(F)F)cccn4n3)o2)cn1` [Example 2506, (S)-(2-(1-methyl-1H-pyrazol-4-yl)oxazol-5-yl)(4-(4-(trifluoromethyl)pyrazolo[1,5-a]pyridin-2-yl)-1,4,6,7-tetrahydro-5H-imidazo[4,5-c]pyridin-5-yl)methanone]: the AC50 fell in the range of 1 to 5 µM.

`FC(F)Oc1cccn2nc([C@@H]3c4nc[nH]c4CCN3c3nnc(C4CC4)o3)cc12` [Example 2509, (S)-2-cyclopropyl-5-(4-(4-(difluoromethoxy)pyrazolo[1,5-a]pyridin-2-yl)-1,4,6,7-tetrahydro-5H-imidazo[4,5-c]pyridin-5-yl)-1,3,4-oxadiazole]: the AC50 was 1 to 5 µM.

Take `FC(F)(F)c1cccn2nc([C@@H]3c4nc[nH]c4CCN3c3nnc(-c4cnccn4)o3)cc12` [Example 2510, (S)-2-(pyrazin-2-yl)-5-(4-(4-(trifluoromethyl)pyrazolo[1,5-a]pyridin-2-yl)-1,4,6,7-tetrahydro-5H-imidazo[4,5-c]pyridin-5-yl)-1,3,4-oxadiazole]: the AC50 fell in the range of 1 to 5 µM.

For the compound `FC(F)(F)c1cccn2nc([C@H]3c4nc[nH]c4CCN3c3nnc(-c4cnccn4)o3)cc12` [Example 2511, (R)-2-(pyrazin-2-yl)-5-(4-(4-(trifluoromethyl)pyrazolo[1,5-a]pyridin-2-yl)-1,4,6,7-tetrahydro-5H-imidazo[4,5-c]pyridin-5-yl)-1,3,4-oxadiazole], the AC50 is above 5 µM.
